Values of other authors in patent US7473685B2, “Process for preparation of chemically stable, dry-flow, low compact, dust free, soluble granules of phosphoroamidothioates” (United Phosphorus, Ltd., priority 2001, dated 2009).

Test system: aphids, leaf-miners, lepidopterous, larvae, sawflies and thrips
Conditions: systemic and contact insecticide of moderate persistence

Q: With `COP(=O)(NC(C)=O)SC` (stereo not shown) [Acephate] as the compound, how does the residual activity lasting read?
A: 10 to 15 days
